Results on one molecule are retold here after patent US20230348486A1, “NEAR-INFRARED EMITTING PORPHYRIN COMPOUND AND PREPARATION METHOD AND USE THEREOF” (PEKING UNIVERSITY, priority 2020, published 2023).

In series [1] the test system is A375 human malignant melanoma cells. As to the kind of experiment: Animal test of photodynamic therapy, subcutaneous tumor model. Format: in vivo, BALB/C nude mice. The conditions noted are these: skin application, 10 mg·kg^-1, light 400-700 nm, 2 weeks, FIG. 2. On the procedure:
BALB/C nude mice, which were 4-5 weeks old, females, 16-25 grams, were used in the in vivo experiment. Each mouse was inoculated with 100ul (5×10^6) of A375 human malignant melanoma cells subcutaneously in the right scapula, and the experiment was carried out two weeks later.
The nude mice were randomly individed to control group and skin application group with 6 mice in each group. The control group was only irradiated with light (tungsten lamp, 400-700 nm, 6.5 mW/cm^2) without administration, and the 1 mM/20 ul aqueous solution of molecule 6 was administrated to the skin application group in an amount of 10 mg·kg^-1 based on the weights of the nude mice. After administrated, the animals were protected from light for 24 hours, and then were each individually irradiated on their tumor sites for 30 minutes a day for consecutive 3 days. The nude mice were not protected from light after the treatment, and were took care in a breeding cage to observe the side effects such as skin phototoxicity appeared on each group of nude mice. After irradiated, the weights of nude mice were measured and their tumor volume were determined with vernier calipers every two days. After 2 weeks of treatment, the lumps were peeled off and weighed.

Series [2] has as its system HepG2 human liver cancer cells. As to the kind of experiment: Cytophototoxicity test (CCK-8) under white light. Format: cell-based. The conditions noted are these: 0.5 h, white light 400-700 nm, about 6.5 mW/cm^2, 30 minutes, read-out: median lethal concentration IC50. As for the experimental part: (§1) The cells used in the experiment included HeLa human cervical cancer cells, HepG2 human liver cancer cells, A375 human malignant melanoma cells, MCF7 human breast cancer cells, and HCT 116 human colon cancer cells. The cells were cultured in DMEM complete medium supplemented with 10% inactivated fetal bovine serum and 1% penicillin-streptomycin at 37° C. under the atmosphere of 5% carbon dioxide.
(§2) After trypsinized, the subculture HeLa cells were dispersed in the medium at appropriate concentration. Then, the dispersed HeLa cells were seeded into a poly-D-lysine modified flat-bottom 96-well plate, so that the amount of medium and the number of cells in each well were 200 µL and about 10^4, respectively, except a group of wells containing medium free of cells for blank control. After culturing the cells in the dark for 24 hours, the medium was removed, and 100 µL of fresh medium and 100 µL of pre-prepared medium solution containing molecule 6 synthesised in Example 6 were added, and then the sample was diluted to a gradient concentration of 0.1-5 µM. After culturing in the dark for another 24 hours, the medium was removed, and each well was rinsed 3 times with PBS (pH=7.4). 100µL of PBS buffer was added to each well, and irradiated
(§3) by white light (400-700 nm) with the same light intensity (about 6.5 mW/cm^2) under bromo-tungsten lamp for 30 minutes. The PBS in each well was removed and replaced with 200 µL of fresh medium to continue culturing for 24 hours. After that, the medium was removed and the wells were rinsed 3 times with PBS. Then 100 µL of 10% CCK-8 reagent (Cell Counting Kit-8) formulated with medium was added into each well to culture the cells for 2 hours. Meanwhile, 2-(2-methoxy-4-nitrophenyl)-3-(4-nitrophenyl)-5-(2,4-disulfonic acid benzene)-2H-[…] monosodium salt (WST-8) can be reduced by living cells together with electronic coupling reagents to yield a yellow product of formazan, accordingly changing the absorbance of the solution at 450 nm, and there was a direct proportional relationship between the change level and the number of living cells. The absorbance change of each well at 450 nm was measued by a microplate reader, and the cell survival rates at various culture concentrations were calculated according to the following equation: […]
(§4) wherein CV refers to the cell survival rate; As, Ac and Ab refer to the absorbance of the cells cultured with the compound, the absorbance of the cells cultured without the compound and the absorbance of the blank control, respectively.
(§5) The median lethal concentrations IC50 of molecule 6 in different cell lines were calculated according to the cell survival rates at various culture concentrations, and the results were shown as follows: […]

In series [3] the test system is MCF7 human breast cancer cells. As to the kind of experiment: Cytophototoxicity test (CCK-8) under white light. Format: cell-based. The conditions noted are these: 0.5 h, white light 400-700 nm, about 6.5 mW/cm^2, 30 minutes, read-out: median lethal concentration IC50. As for the experimental part:
as §1, §2, §3, §4, §5

The subject of series [4] is A375 human malignant melanoma cells. As to the kind of experiment: Cytophototoxicity test (CCK-8) under white light. The series is classed as cell-based. The conditions noted are these: A-375, 0.5 h, white light 400-700 nm, about 6.5 mW/cm^2, 30 minutes, read-out: median lethal concentration IC50. As for the experimental part: as §1, §2, §3, §4, §5
Series [5] relates to HeLa human cervical cancer cells. As to the kind of experiment: Cytophototoxicity test (CCK-8) under white light. The conditions noted are these: 24 h incubation in the dark, white light 400-700 nm, about 6.5 mW/cm^2, 30 minutes, CCK-8 after 24 hours, read-out: median lethal concentration IC50. The series is classed as cell-based. On the procedure:
as §1, §2, §3, §4, §5

For series [6], the system named is HCT 116 human colon cancer cells. As to the kind of experiment: Cytophototoxicity test (CCK-8) under white light. The series is classed as cell-based. The conditions noted are these: HCT-116, 0.5 h, HCT116, white light 400-700 nm, about 6.5 mW/cm^2, 30 minutes, read-out: median lethal concentration IC50. On the procedure: as §1, §2, §3, §4, §5

For `C[N+](C)(C)c1c(F)c(F)c(-c2c3nc(c(-c4c(F)c(F)c([N+](C)(C)C)c(F)c4F)c4ccc([nH]4)c4c(nc5oc6c(F)c([N+](C)(C)C)c(F)c(F)c6c5c5ccc2[nH]5)oc2c(F)c([N+](C)(C)C)c(F)c(F)c24)C=C3)c(F)c1F` [molecule 6], the “change of tumor size (growth of subcutaneous tumors)” value in series [1] (6.5 mW/cm^2, 30 minutes a day for 3 days) was “effectively inhibit the growth of subcutaneous tumors”. In addition, the “change of weight of the mice” value in series [1] (30 minutes a day for 3 days) is reported as “no significant decrease”. In addition, the IC50 came to 800 ± 100 nM in series [2]; 850 ± 100 nM in series [3]; 4750 ± 500 nM in series [4]; 2690 ± 100 nM in series [5]; 1520 ± 200 nM in series [6].
